Entries after “also recorded” stand apart in the source; their conditions may differ.
System: men with clinical BPH
Test: four-year, double-blind placebo-controlled study of finasteride in men with clinical BPH (acute urinary retention and BPH-related surgery outcomes)
Format: in vivo, human
Settings: for risk of AUR or BPH-related surgery / finasteride-related reduction of risk (AUR or surgery): 4 years; for finasteride-related reduction of risk (AUR or surgery): versus placebo
Procedure: A total of 3040 men with clinical BPH diagnosed on the basis of moderate-to-severe symptoms, a decreased peak urinary flow rate (less than 15 mL/sec with a voided volume of 150 mL or more) and an enlarged prostate gland by digital rectal examination (DRE) were enrolled in a four-year study comparing finasteride with placebo. Men receiving alpha blocking agents or antiandrogens, and men with a history of chronic prostatitis, recurrent urinary tract infections, prostate or bladder cancer or surgery, or a serum PSA over 10 ng/mL were excluded. Men with serum PSA concentrations between 4.0 and 9.9 ng/mL had to have a negative prostate biopsy prior to enrollment.
After a one-month single-blind placebo lead-in, men were randomly assigned to receive placebo or 5 mg of finasteride (17β-(N-tert-butylcarbamoyl)-3-oxo-4-aza-5α-androst-1-en-3-one) daily in a four year, double-blind placebo-controlled study. BPH-related outcomes including symptoms, bothersomeness, adverse events and urinary flow rates, were assessed every 4 months. Serum PSA was measured every 4 months in the first year and then every 8 months at a central laboratory. Physical examination and routine hematological and serum chemistry tests were performed yearly. Magnetic resonance imaging (MRI) was performed at baseline and subsequently yearly in a subset of 10% of patients. All MRI images were read by a central radiologist blinded to treatment allocation and time of imaging.
Acute urinary retention (AUR) and surgery for BPH were predefined secondary end-points. The endpoint committee, blinded to treatment group, reviewed all study-related documents related to episodes of acute urinary retention, and all prostate surgeries for BPH, excluding surgery for prostate cancer. The endpoint committee classified episodes of AUR as spontaneous versus precipitated (when contributing factors such as urinary tract infection, surgery anesthesia, ingestion of alpha sympathomimetic drugs or anticholinergics were identified).
Complete data on outcomes, including four-year follow-up information for men who had discontinued treatment, were available for 92% of the men randomized. In the other 8%, complete information was available until discontinuation of the medication or up to the 6-month follow-up assessment after discontinuation.
The effect of baseline serum PSA on the risk of BPH-related outcomes (developing AUR and need for BPH-related surgery), were assessed by dividing patients into tertiles of baseline serum PSA, and calculating the risk of developing an outcome by time-to-first event analysis as well as Fisher's exact test for cumulative incidence. The finasteride-related reduction in risk over 4 years was calculated using log rank analyses. All statistical tests were two-sided and a p-value of <0.05 accepted as significant.
The measurement characteristics of baseline in prediction of BPH-related outcomes were evaluated using receiver operating characteristic (ROC) curves. The area under the ROC curve (AUC) for a given population is given by the probability that a randomly chosen individual in the affected population has a higher value of the index (in this case PSA) than a randomly chosen individual in the non-affected population. The AUC's were computed using the method of Hanley and McNeil. Differences between AUC's in the finasteride and placebo group were tested using normal statistics with standard deviations computed by the same method.

[1] = 5 mg daily, four years, all patients
[2] = lowest tertile of serum PSA (0.0-1.3 ng/mL)
[3] = second tertile (serum PSA 1.4-3.2 ng/mL)

Structure (SMILES): CC(C)(C)NC(=O)[C@H]1CC[C@H]2[C@@H]3CC[C@H]4NC(=O)C=C[C@]4(C)[C@H]3CC[C@]12C [finasteride, 17β-(N-tert-butylcarbamoyl)-3-oxo-4-aza-5α-androst-1-en-3-one]
- incidence of BPH-related surgery [1]: 5%
- incidence of precipitated AUR [1]: 2%
- incidence of spontaneous AUR [1]: 1%
- overall incidence of acute urinary retention (5 mg finasteride daily, four years, all patients): 4%
- decrease of the risk of developing a BPH-related outcome (all subgroups examined): approximately half
- increase of cumulative incidence of spontaneous AUR with increasing baseline serum PSA (finasteride-treated patients, four years, FIG. 1): nearly absent; also recorded: the risk remains unchanged over the entire serum PSA spectrum
- increase of cumulative incidence of all AUR (spontaneous and precipitated combined) with increasing baseline serum PSA (finasteride-treated patients, four years, FIG. 2): nearly absent
- increase of cumulative incidence of BPH-related surgery across baseline PSA values (finasteride-treated patients, four years, FIG. 3): increases only in finasteride-treated patients in men with a baseline PSA above 5.0 ng/mL
- risk of AUR or BPH-related surgery (highest tertile of baseline serum PSA): 8.3%
- risk of AUR or BPH-related surgery (lowest tertile of baseline serum PSA): 4.4%
- 4-year relative risk for finasteride versus placebo-treated patients [2]: 0.57
- benefit of finasteride over placebo in the first two years (risk of AUR or surgery) [2]: minimal; also recorded: no apparent benefit
- finasteride-related reduction of risk (AUR or surgery) [2]: 43%
- 4-year relative risk for finasteride versus placebo-treated patients [3]: 0.54
- finasteride-related reduction of risk (AUR or surgery) [3]: 46%
- 4-year relative risk for finasteride versus placebo treated patients (third tertile of serum PSA (3.3-12 ng/mL)): 0.40
- finasteride-related reduction of risk (AUR or surgery) (third/highest tertile of serum PSA (3.3-12 ng/mL)): 60%
